PubChem BioAssay (NCI)
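Five compound concentrations were applied to cells in 96-well plates for 48 hours; endpoints were derived by simple linear interpolation of the resulting dose-response curve. At the TGI there is no net growth.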

Tests used:
Assay in all cases: growth of human tumour cells (NCI), 48 h
HCT-116 colon = test system: HCT-116 colon
KM12 colon = test system: KM12 colon
LOX IMVI melanoma = test system: LOX IMVI melanoma
SK-MEL-2 melanoma = test system: SK-MEL-2 melanoma
SK-MEL-5 melanoma = test system: SK-MEL-5 melanoma
HOP-62 NSCLC = test system: HOP-62 NSCLC
OVCAR-5 ovarian = test system: OVCAR-5 ovarian
ACHN renal = test system: ACHN renal
MOLT-4 leukemia = test system: MOLT-4 leukemia
NCI-H460 lung = test system: NCI-H460 lung
SNB-19 CNS = test system: SNB-19 CNS
HS 578T breast = test system: HS 578T breast
M14 melanoma = test system: M14 melanoma
CCRF-CEM leukemia = test system: CCRF-CEM leukemia
UO-31 renal = test system: UO-31 renal
MDA-N = test system: MDA-N
NCI/ADR-RES ovarian = test system: NCI/ADR-RES ovarian
K-562 leukemia = test system: K-562 leukemia

SMILES | TGI (HCT-116 colon) [µM] | TGI (KM12 colon) [µM] | TGI (LOX IMVI melanoma) [µM] | TGI (SK-MEL-2 melanoma) [µM] | TGI (SK-MEL-5 melanoma) [µM] | TGI (HOP-62 NSCLC) [µM] | TGI (OVCAR-5 ovarian) [µM] | TGI (ACHN renal) [µM] | TGI (MOLT-4 leukemia) [µM] | TGI (NCI-H460 lung) [µM] | TGI (SNB-19 CNS) [µM] | TGI (HS 578T breast) [µM] | TGI (M14 melanoma) [µM] | TGI (CCRF-CEM leukemia) [µM] | TGI (UO-31 renal) [µM] | TGI (MDA-N) [µM] | TGI (NCI/ADR-RES ovarian) [µM] | TGI (K-562 leukemia) [µM]
CCC(NC(C)c1ccccc1)C(O)c1ccc(OCc2ccccc2)c(OCc2ccccc2)c1 (configuration not stated) | 27.7 | 18 | 26.3 | 29.1 | 14.4 | 32.2 | 26.3 | 32.2 | 33.4 | 32.1 | 28.6 | 46.9 | 16.3 | 38.7 | 23.7 | 30.3 | 30.6 | 9.44
O=C(N=S(NC(=O)c1ccccc1)C(Cl)(Cl)Cl)c1ccccc1 (configuration not stated) | 28.8 | > 100 | 39.3 | 70.1 | 20.5 | > 31.6 | 50.7 | 47.5 | 30.7 | > 70.9 | > 100 | 99.5 | 30.7 | 12.1 | 29.9 | > 100 | > 51.9 | > 84
COC(=O)C1CC2(CCC1=O)Cc1ccccc1C2=O (configuration not stated) | > 100 | > 100 | > 100 | > 100 | > 100 | > 100 | > 100 | > 100 | > 100 | > 100 | > 100 | > 100 | > 100 | > 100 | > 100 | > 100 | > 100 | > 100
CC1(C)CC(=O)c2c(nc3ccc4ccccc4c3c2-c2ccc(NC(=O)CCCC(=O)Nc3ccc(-c4c5c(nc6ccc7ccccc7c46)CC(C)(C)CC5=O)cc3)cc2)C1 | > 100 | > 100 | > 100 | > 100 | > 100 | > 100 | > 100 | > 100 | > 100 | > 100 | > 100 | > 100 | > 100 | > 100 | > 100 | > 100 | > 100 | > 100
COC(=O)C1C(OC(=O)c2ccccc2)CC2CCC1N2C(N)=O (configuration not stated) | > 100 | > 100 | > 100 | > 100 | > 100 | > 100 | > 100 | > 100 | > 100 | > 100 | > 100 | > 100 | > 100 | > 100 | > 100 | > 100 | > 100 | > 100
COC(=O)c1ccc2c(O)c(O)ccc2c1 | 32 | 30.8 | 11.5 | 13.8 | 8.58 | 32.9 | 36.5 | 30.9 | 13.7 | 39.3 | 27.5 | > 69.2 | 31 | > 27 | 36.4 | 3.29 | 48.1 | 5.43
COC(=O)C1=CSC2(S1)C(C(=O)OC)=CSc1c2ssc1=Nc1ccccc1 (configuration not stated) | 4.06 | 10.1 | 4.1 | 7.36 | 9.07 | 8.67 | 17.7 | 6.57 | 3.55 | > 100 | 8.71 | 8.34 | 5.13 | 7.96 | > 100 | > 100 | 3.8 | 7.38
O=C(NNC1=NCCN1)c1ccco1 | > 100 | > 100 | > 100 | > 100 | > 100 | > 100 | > 100 | > 100 | > 100 | > 100 | > 100 | > 100 | > 100 | > 100 | > 100 | > 100 | > 100 | > 100
CN(C(=O)Cc1cc(Cl)c(Cl)cc1N=C=S)[C@H]1CCCC[C@@H]1N1CCCC1 | 21.7 | 29.7 | 13.3 | 29.2 | 27.8 | 27.9 | 31.7 | 28.7 | 14.2 | 22 | 27.4 | 42.4 | 29.6 | 7.32 | 29.1 | 28.1 | 36.9 | 5.89
Cc1c(/C=N/NC(=S)Nc2ccccc2Cl)c(=O)n(-c2ccccc2)n1C | > 100 | > 100 | > 100 | > 100 | > 100 | 78.2 | > 100 |  | > 100 | > 100 | > 100 | 85.3 | > 100 | > 100 | > 100 | > 100 | 76.1 | > 100
COC(=O)C1CCC(=O)N1CN(C(C)=O)c1ccccc1 (configuration not stated) | > 100 | > 100 | > 100 | > 100 | > 100 | > 100 | > 100 | > 100 | > 100 | > 100 | > 100 | > 100 | > 100 | > 100 | > 100 | > 100 | > 100 | > 100
O=C(CN1CCNCCN(CC(=O)N2CCCCC2)CCNCC1)N1CCCCC1 | > 100 | > 100 | > 100 | > 100 | > 100 | > 100 | > 100 | > 100 | > 100 | > 100 | > 100 | > 100 | > 100 | > 100 | > 100 | > 100 | > 100 | > 100
CCCN(C(=O)c1c(Cl)nnc(Cl)c1C(=O)c1cc(Cl)nnc1Cl)c1cc(Cl)nnc1Cl | 19.6 | 26.4 | 18.5 | 33.3 | 21.4 | 48.8 | 41.2 | 25.5 | 12.5 | 70.4 | 87.7 | 14.9 | 40.8 | 10.6 | 33.2 | 30 | 69.1 | 27.4
CCOC(=O)/C(C(=S)Nc1ccccc1)=C(/N)N1CCCC1 | > 100 | > 100 | > 100 | > 100 | > 100 | > 100 | > 100 | > 100 | > 100 | > 100 | > 100 | > 100 | > 100 | > 100 | > 100 | 84.9 | > 100 | > 100
Cc1cc(=O)[nH]c(NN2C(Cl)C(=O)C2c2ccc(Cl)cc2)n1 (configuration not stated) | 31.1 | 16.1 | 15.1 | 46.4 | 25.7 | 48.6 | > 60.4 | > 56.4 | 22.7 | 31.1 | 45.2 | 93.5 | 28.9 | 5.67 | > 60.9 | 72.6 | 54.9 | 16.2
O=c1oc2ccccc2c2c(=O)c3ccc(OC/C(=N/O)c4ccc(Cl)cc4)cc3oc12 | 24 | 14 | 31.9 | 24.1 | 18.7 | 31.5 | 37 | 19.2 | 8.79 | 33 | 33.1 | 42.1 | 34 | 60.8 | 30.8 | 10.9 | 31.4 | 12.1
COc1nc(N)c(NC2OC(CO)C(O)C2O)c(=O)[nH]1 (configuration not stated) | > 100 | > 100 | > 100 | > 100 | > 100 | > 100 | > 100 | > 100 | > 100 | > 100 | > 100 | > 100 | > 100 | > 100 | > 100 | > 100 | > 100 | > 100
CC1CCCc2c(C#N)c(N)nc(-c3ccc(Cl)cc3)c21 (configuration not stated) | > 100 | > 100 | 36.3 | 44.4 | 35.9 | 24.8 | 63.3 | 38.4 | 43.2 | 59 | > 100 | > 100 | 66.4 | > 100 | 79.7 | 93.9 | > 100 | > 100
Cc1ccc(-c2nc3ccc(Cl)cc3[nH]2)cc1 | > 100 | > 100 | > 100 | > 100 | > 100 | > 100 |  | > 100 | > 100 | > 100 | > 100 | > 100 | > 100 | > 100 | > 100 | > 100 | > 100 | > 100
CSc1nc(N)c(NC2OC(CO)C(O)C2O)c(=O)[nH]1 (configuration not stated) | > 100 | > 100 | > 100 | > 100 | > 100 | > 100 | > 100 |  | > 100 | > 100 | > 100 | > 100 | > 100 | > 100 | > 100 | > 100 | > 100 | > 100
